Values after ≈ are worked out from the molar mass of the structure shown.
What was measured:
Escherichia coli [1] = assay: Antimicrobial activity against […] Escherichia coli harboring mcr-1 assessed as bacterial growth inhibition incubated for 20 hrs by broth microdilution method; assay type: functional
Klebsiella pneumoniae [2] = assay: Antimicrobial activity against Klebsiella pneumoniae ATCC 13883 assessed as bacterial growth inhibition incubated for 20 hrs by broth microdilution method; assay type: functional
Pseudomonas aeruginosa [3] = assay: Antimicrobial activity against Pseudomonas aeruginosa PAO1 assessed as bacterial growth inhibition incubated for 20 hrs by broth microdilution method; assay type: functional
Acinetobacter baumannii [4] = assay: Antimicrobial activity against Acinetobacter baumannii ATCC 19606 assessed as bacterial growth inhibition incubated for 20 hrs by broth microdilution method; assay type: functional
Acinetobacter baumannii [5] = assay: Antimicrobial activity against colistin resistant Acinetobacter baumannii ATCC 3658/17 assessed as bacterial growth inhibition incubated for 20 hrs by broth microdilution method; assay type: functional
Escherichia coli [6] = assay: Antibacterial activity against […] Escherichia coli clinical isolate 2 assessed as bacterial growth inhibition incubated for 20 hrs by broth microdilution method; assay type: functional
Escherichia coli [7] = assay: Antibacterial activity against […] Escherichia coli clinical isolate 3 assessed as bacterial growth inhibition incubated for 20 hrs by broth microdilution method; assay type: functional
Pseudomonas aeruginosa [8] = assay: Antimicrobial activity against Pseudomonas aeruginosa ATCC 27853 assessed as bacterial growth inhibition incubated for 20 hrs by broth microdilution method; assay type: functional
Pseudomonas aeruginosa [9] = assay: Antimicrobial activity against colistin resistant Pseudomonas aeruginosa clinical isolate 1 assessed as bacterial growth inhibition incubated for 20 hrs by broth microdilution method; assay type: functional
Klebsiella pneumoniae [10] = assay: Antimicrobial activity against colistin resistant Klebsiella pneumoniae clinical isolate 1 assessed as bacterial growth inhibition incubated for 20 hrs by broth microdilution method; assay type: functional
Klebsiella pneumoniae [11] = assay: Antimicrobial activity against colistin resistant Klebsiella pneumoniae clinical isolate 2 assessed as bacterial growth inhibition incubated for 20 hrs by broth microdilution method; assay type: functional
Klebsiella pneumoniae [12] = assay: Antimicrobial activity against colistin resistant Klebsiella pneumoniae clinical isolate 3 assessed as bacterial growth inhibition incubated for 20 hrs by broth microdilution method; assay type: functional
Acinetobacter baumannii [13] = assay: Antimicrobial activity against colistin resistant Acinetobacter baumannii clinical isolate 1 assessed as bacterial growth inhibition incubated for 20 hrs by broth microdilution method; assay type: functional
Acinetobacter baumannii [14] = assay: Antimicrobial activity against colistin resistant Acinetobacter baumannii clinical isolate 2 assessed as bacterial growth inhibition incubated for 20 hrs by broth microdilution method; assay type: functional
Acinetobacter baumannii [15] = assay: Antimicrobial activity against colistin resistant Acinetobacter baumannii clinical isolate 3 assessed as bacterial growth inhibition incubated for 20 hrs by broth microdilution method; assay type: functional
Acinetobacter baumannii [16] = assay: Antimicrobial activity against colistin resistant Acinetobacter baumannii clinical isolate 4 assessed as bacterial growth inhibition incubated for 20 hrs by broth microdilution method; assay type: functional
Escherichia coli [17] = assay: Potency index, ratio of colistin MIC to test compound MIC for antibacterial activity against Escherichia coli harboring mcr-1; assay type: functional
Pseudomonas aeruginosa [18] = assay: Potency index, ratio of colistin MIC to test compound MIC for antibacterial activity against colistin resistant Pseudomonas aeruginosa clinical isolate 1; assay type: functional
Escherichia coli [19] = assay: Potency index, ratio of colistin MIC to test compound MIC for antibacterial activity against […] Escherichia coli; assay type: functional
Escherichia coli [20] = assay: Antibacterial activity against Escherichia coli ATCC 25922 assessed as bacterial growth inhibition incubated for 20 hrs by broth microdilution method; assay type: functional
Klebsiella pneumoniae [21] = assay: Antimicrobial activity against colistin resistant Klebsiella pneumoniae ATCC 13883 assessed as bacterial growth inhibition incubated for 20 hrs by broth microdilution method; assay type: functional
Klebsiella pneumoniae [22] = assay: Antimicrobial activity against colistin resistant Klebsiella pneumoniae clinical isolate 5 assessed as bacterial growth inhibition incubated for 20 hrs by broth microdilution method; assay type: functional
Acinetobacter baumannii [23] = assay: Antimicrobial activity against colistin resistant Acinetobacter baumannii ATCC 19606 assessed as bacterial growth inhibition incubated for 20 hrs by broth microdilution method; assay type: functional
Pseudomonas aeruginosa [24] = assay: Potency index, ratio of polymyxin B MIC to test compound MIC for antibacterial activity against colistin resistant Pseudomonas aeruginosa clinical isolate 1; assay type: functional
Erythrocyte = assay: Hemolytic activity in human RBC at 400 ug/ml after 1 hr; assay type: toxicity, cell-based; settings: erythrocyte, 1 h, at 400 µg/mL
HepG2 = assay: Cytotoxicity against human HepG2 cells incubated for 48 hrs by MTT assay; assay type: toxicity, cell-based

Molecule	MIC (Escherichia coli [1]) [µg/mL]	MIC (Klebsiella pneumoniae [2]) [µg/mL]	MIC (Pseudomonas aeruginosa [3]) [µg/mL]	MIC (Acinetobacter baumannii [4]) [µg/mL]	MIC (Acinetobacter baumannii [5]) [µg/mL]	MIC (Escherichia coli [6]) [µg/mL]	MIC (Escherichia coli [7]) [µg/mL]	MIC (Pseudomonas aeruginosa [8]) [µg/mL]	MIC (Pseudomonas aeruginosa [9]) [µg/mL]	MIC (Klebsiella pneumoniae [10]) [µg/mL]	MIC (Klebsiella pneumoniae [11]) [µg/mL]	MIC (Klebsiella pneumoniae [12]) [µg/mL]	MIC (Acinetobacter baumannii [14]) [µg/mL]	Ratio (Escherichia coli [17])	Ratio (Pseudomonas aeruginosa [18])	other results
CCCCCCCC(=O)N[C@@H](CCN)C(=O)N[C@H](C(=O)N[C@@H](CCN)C(=O)N[C@H]1CCNC(=O)[C@H]([C@@H](C)O)NC(=O)[C@H](CCN)NC(=O)[C@H](CCN)NC(=O)[C@H](CCCc2ccccc2)NC(=O)[C@@H](Cc2ccccc2)NC(=O)[C@H](CCN)NC1=O)[C@@H](C)O	0.5 (≈ 0.4 µM)	< 0.125	< 0.125	0.125 (≈ 0.0999 µM)	< 0.125	1 (≈ 0.799 µM)	1 (≈ 0.799 µM)	0.125 (≈ 0.0999 µM)	2 (≈ 1.6 µM)	8 (≈ 6.39 µM)	4 (≈ 3.2 µM)	2 (≈ 1.6 µM)	0.5 (≈ 0.4 µM)	4	2	MIC (Acinetobacter baumannii [13]): 2 µg/mL (≈ 1.6 µM); MIC (Acinetobacter baumannii [15]): 1 µg/mL (≈ 0.799 µM); MIC (Acinetobacter baumannii [16]): 2 µg/mL (≈ 1.6 µM); Ratio (Escherichia coli [19]): 4
CCCCCCCC(=O)N[C@@H](CCN)C(=O)N[C@H](C(=O)N[C@@H](CCN)C(=O)N[C@H]1CCNC(=O)[C@H]([C@@H](C)O)NC(=O)[C@H](CCN)NC(=O)[C@H](CCN)NC(=O)[C@H](CCCCCC)NC(=O)[C@@H](Cc2ccccc2)NC(=O)[C@H](CCN)NC1=O)[C@@H](C)O	0.5 (≈ 0.411 µM)	< 0.123	< 0.125	0.125 (≈ 0.103 µM)	0.25 (≈ 0.205 µM)	1 (≈ 0.821 µM)	1 (≈ 0.821 µM)	0.25 (≈ 0.205 µM)	2 (≈ 1.64 µM)	16 (≈ 13.1 µM)	8 (≈ 6.57 µM)	4 (≈ 3.29 µM)	16 (≈ 13.1 µM)	4	2	MIC (Escherichia coli [20]): < 0.125 µg/mL; MIC (Klebsiella pneumoniae [21]): 8 µg/mL (≈ 6.57 µM); MIC (Klebsiella pneumoniae [22]): 16 µg/mL (≈ 13.1 µM); MIC (Acinetobacter baumannii [23]): 0.25 µg/mL (≈ 0.205 µM); Ratio (Pseudomonas aeruginosa [24]): 2
POLYMYXIN B	–	–	–	–	–	–	–	–	–	–	–	–	–	–	–	Activity (Erythrocyte): < 10%; IC50 (HepG2): > 1280 µg/mL
